{"source": "patent US20040053847A1", "about": "“Diastereomeric peptitdes and pharmaceutical compositions comprising them” (priority 2000, published 2004)", "key": {"[1]": {"system": "Candida albicans ATCC 10231", "assay_type": "cell-based", "details": "ATCC 10231", "method": "(§1) The antifungal activity of the diastereomers was examined in sterile 96-well plates (Nunc F96 microtiter plates) in a final volume of 200 μL as follows: 100 μl of a suspension containing fungi at concentration of 1×10^4 Colony-Forming Units (CFU)/ml in culture medium (RPMI 1640, 0.165 M MOPS pH 7.0, with L-glutamine, without NaHCO3) was added to 100 μl of water containing the peptide in serial 2-fold dilutions in water. The fungi were incubated in the presence of the diastereomeric peptides for 24-48 h at 35° C. in a Binder KB115 incubator under agitation. Growth inhibition was determined by measuring the absorbance at 620 nm with a Microplate autoreader E1309 (Bio-tek Instruments). Antifungal activity is expressed as the minimal inhibitory concentration (MIC), the concentration at which 100% inhibition of growth was observed after the incubation time mentioned above. The fungi used were: Aspergillus niger ATCC 9642, Candida albicans ATCC 10231 and Cryptococcus neoformans ATCC 66031."}, "[2]": {"system": "Cryptococcus neoformans ATCC 66031", "assay_type": "cell-based", "method": "as §1"}, "[3]": {"system": "Aspergillus niger ATCC 9642", "assay_type": "cell-based", "details": "ATCC 9642", "method": "as §1"}, "[4]": {"assay": "Cell selectivity, Trypan blue cell viability, LC50", "assay_type": "cell-based, mouse", "details": "mouse, NIH-3T3 fibroblasts; 50% cell mortality after 24 h incubation, medium without serum; read-out: Lethal Concentration (LC50), NIH-3T3 fibroblasts"}, "[5]": {"system": "B16 F10 mouse melanoma cell line", "assay": "In vitro anticancer activity, Trypan blue cell viability, LC50", "details": "50% cell mortality after 24 h incubation, medium without serum", "method": "The anticancer activity of the diastereomers 1, 2, 8, 9 and 10 was examined against B16 F10 mouse melanoma cell line. Melanoma cells were grown in RPMI-1640 medium supplemented with 10% fetal calf serum and antibiotics, at 37° C., in humidified atmosphere at 5% CO2 and 95% air. In addition, the cell-selectivity of the diastereomeric peptides was studied by examining their effect on NIH-3T3 normal fibroblasts cell line. NIH-3T3 mouse fibroblasts cells were grown in DMEM medium supplemented with 10% bovine calf serum and antibiotics under the same conditions as described above for B16 F10 mouse melanoma cells. Melanoma cells (2×10^5 cells ml^−1) or NIH-3T3 cells (2.5×10^5 cells ml^−1) were seeded in tissue culture plates (3.5 cm). After 48 h, cells were washed thrice with the corresponding medium. Then the cells were incubated at 37° C. in medium (without serum and antibiotics) in the presence of the tested diastereomeric peptides dissolved in PBS, at different concentrations. […] Following 24 h of incubation, the cells were harvested with trypsin (0.25%)-EDTA (0.05%) and centrifuiged for 10 min at 270×g. The precipitated cells were suspended in the corresponding medium and counted in a hemocytometer (Neubauer). Cell viability was determined by Trypan blue dye exclusion."}, "human breast MCF-7 cells": {"system": "human breast MCF-7 cells", "assay": "Xenograft model of human breast MCF-7 cells in SCID mice", "assay_type": "in vivo", "method": "The in-vivo anticancer assay was conducted on SCID (Severe Combined Immune Deficiency) mice using the xenograft model of human breast MCF-7 cells. Groups of 6 SCID female mice weighing 18-20 g (6-week old), bred in an animal isolator (IVC racks under specific pathogen-free (SPF) conditions at 24±1° C., were used. Viable human breast carcinoma MCF-7 cells (ATCC HTB-22−1×10^7 cells in 0.2 ml of PBS) were injected subcutaneously (s.c.) into the dorsal side of SCID mice. 50 μg/mouse of estradiol benzoate was injected s.c. weekly as a supplement for 4 weeks. […] Mitomycin at a dose of 2 mg/kg was administered intraperitoneally (IP) twice a week for 5 doses. The tumor size, body weight and the signs of overt animal toxicity after each treatment were recorded and observed. At the end of the experiment, hematological analysis was carried out."}, "[6]": {"system": "SK-MEL- (ATCC HTB-70) malignant melanoma", "assay_type": "cell-based, human", "details": "24 h", "method": "(§2) Aliquots of 100 μl of tumor cell suspension (about 2.5-5×10^3/well) were placed in 96-well microtiter plates in an atmosphere of 5% CO2 at 37° C. […] At the end of incubation, 20 μl of AlamarBlue 75% reagent was added to each well for another 6-hour incubation before detection of cell viability by fluorescence intensity. Fluorescence intensity was measured using a Spectraflour Plus plate reader with excitation at 530 nm and emission at 590 nm. The assays were used to detect changes in cell proliferation based on the ability of viable cells to cause AlamarBlue to change from its oxidized (non-fluorescent, blue) to a reduced (fluorescent, red) form. With the results obtained from the AlamarBlue reaction, cell proliferation can be quantified and metabolic activity of viable cells can be examined."}, "[7]": {"system": "HT-29 colon adenocarcinoma", "assay_type": "cell-based, human", "details": "24 h", "method": "as §2"}, "A549 lung carcinoma": {"system": "A549 lung carcinoma", "assay_type": "cell-based, human", "details": "24 h", "method": "as §2"}, "[8]": {"system": "PC-3 prostate adenocarcinoma", "assay_type": "cell-based, human", "details": "24 h", "method": "as §2"}, "[9]": {"system": "MCF-7 breast adenocarcinoma", "assay_type": "cell-based, human", "details": "24 h", "method": "as §2"}, "[10]": {"details": "Hematology analysis on Day 25, MEAN ± SEM"}, "[11]": {"details": "hematological analysis at the end of the assay"}, "[12]": {"details": "peptide 9 3 mg/kg IV, mitomycin 2 mg/kg IP"}}, "note": "Square brackets hold non-standard residues; d marks the D form. Peptide text beside a SMILES is read from it.", "data": [{"smiles": "CC(C)C[C@H](NC(=O)CN)C(=O)N[C@H](CC(C)C)C(=O)N[C@@H](CCCCN)C(=O)N[C@@H](CC(C)C)C(=O)N[C@@H](CC(C)C)C(=O)N[C@H](CCCCN)C(=O)N[C@H](CCCCN)C(=O)N[C@@H](CC(C)C)C(=O)N[C@H](CC(C)C)C(=O)N[C@@H](CCCCN)C(=O)N[C@@H](CC(C)C)C(=O)N[C@H](CC(C)C)C(=O)N[C@@H](CC(C)C)C(=O)N[C@@H](CCCCN)C(=O)N[C@@H](CCCCN)C(N)=O", "note": "[Peptide 8, [D]-L^3,10,13,K^7,8-GK6L9] (H-GL[dL]KLL[dK][dK]L[dL]KL[dL]LKK-NH2; N-terminus assumed)", "values": [{"measurement": "MIC, C. albicans ATCC 10231", "setting": "[1]", "result": 30, "unit": "µg/mL"}, {"measurement": "MIC, C. neoformans ATCC 66031", "setting": "[2]", "result": 1.5, "unit": "µg/mL"}, {"measurement": "MIC, A. niger ATCC 9642", "setting": "[3]", "result": 30, "unit": "µg/mL"}, {"measurement": "CC50 at 24 h", "setting": "[4]", "result": 30, "unit": "µg/mL"}, {"measurement": "Lethal Concentration (LC50), B16-F10 melanoma", "setting": "[5]", "result": 9, "unit": "µg/mL"}]}, {"smiles": "CC(C)C[C@H](NC(=O)CN)C(=O)N[C@H](CC(C)C)C(=O)N[C@@H](CC(C)C)C(=O)N[C@@H](CCCNC(=N)N)C(=O)N[C@H](CC(C)C)C(=O)N[C@@H](CC(C)C)C(=O)N[C@H](CCCCN)C(=O)N[C@H](CCCCN)C(=O)N[C@@H](CC(C)C)C(=O)N[C@@H](CC(C)C)C(=O)N[C@@H](CCCNC(=N)N)C(=O)N[C@H](CC(C)C)C(=O)N[C@@H](CC(C)C)C(=O)N[C@@H](CCCCN)C(=O)N[C@@H](CCCCN)C(N)=O", "note": "[Peptide 5, [D]-L^3,6,13,K^8,9-GK4R2L9] (H-GL[dL]LR[dL]L[dK][dK]LLR[dL]LKK-NH2; N-terminus assumed)", "values": [{"measurement": "MIC, C. albicans ATCC 10231", "setting": "[1]", "result": 50, "unit": "µg/mL"}, {"measurement": "MIC, C. neoformans ATCC 66031", "setting": "[2]", "result": 3, "unit": "µg/mL"}, {"measurement": "MIC, A. niger ATCC 9642", "setting": "[3]", "result": 50, "unit": "µg/mL"}]}, {"smiles": "CC(C)C[C@H](NC(=O)[C@H](CC(C)C)NC(=O)[C@@H](CCCCN)NC(=O)[C@H](CC(C)C)NC(=O)[C@H](CC(C)C)NC(=O)[C@H](CCCCN)NC(=O)[C@@H](CCCCN)NC(=O)[C@@H](CC(C)C)NC(=O)[C@H](CC(C)C)NC(=O)[C@H](CCCCN)NC(=O)[C@H](CCCCN)NC(=O)[C@H](CC(C)C)NC(=O)[C@@H](CC(C)C)NC(=O)[C@H](CCCCN)NC(=O)[C@@H](N)CC(C)C)C(N)=O", "note": "[Peptide 3, [D]-L^3,8,K^9,13-K6L9] (H-LK[dL]LKKL[dL][dK]KLL[dK]LL-NH2; N-terminus assumed)", "values": [{"measurement": "MIC, C. albicans ATCC 10231", "setting": "[1]", "result": 40, "unit": "µg/mL"}, {"measurement": "MIC, C. neoformans ATCC 66031", "setting": "[2]", "result": 2.8, "unit": "µg/mL"}, {"measurement": "MIC, A. niger ATCC 9642", "setting": "[3]", "result": 90, "unit": "µg/mL"}]}, {"smiles": "CO[C@@]12[C@H](COC(N)=O)C3=C(C(=O)C(C)=C(N)C3=O)N1C[C@@H]1N[C@@H]12", "note": "[Mitomycin C, mitomycin C]", "values": [{"measurement": "PLT", "setting": "human breast MCF-7 cells; [10]", "result": 396000, "unit": "µL⁻¹"}, {"measurement": "RBC", "setting": "human breast MCF-7 cells; [10]", "result": "10.55 ± 0.37 × 10^6/μl"}, {"measurement": "WBC", "setting": "human breast MCF-7 cells; [10]", "result": 670, "unit": "µL⁻¹"}, {"measurement": "Reduction of RBC", "setting": "human breast MCF-7 cells; [11]", "result": "significant reduction"}, {"measurement": "Reduction of WBC and platelets", "setting": "human breast MCF-7 cells; [11]", "result": "significant reduction"}, {"measurement": "Effect on tumor growth (FIG. 1)", "setting": "human breast MCF-7 cells; peptide 9 3 mg/kg IV twice a week, 6 doses, mitomycin 2 mg/kg IP twice a week, 5 doses", "result": "more potent than peptide 9"}, {"measurement": "Body weight and condition of animals (FIG. 2)", "setting": "human breast MCF-7 cells; [12]", "result": "signs of weakness and loss of weight"}, {"measurement": "Side effects in treated animals", "setting": "human breast MCF-7 cells; [12]", "result": "severe side effects throughout the assay period"}]}, {"smiles": "CC(C)C[C@H](NC(=O)[C@H](CC(C)C)NC(=O)[C@@H](CCCCN)NC(=O)[C@H](CC(C)C)NC(=O)[C@H](CC(C)C)NC(=O)[C@H](CCCCN)NC(=O)[C@@H](CCCCN)NC(=O)[C@@H](CC(C)C)NC(=O)[C@H](CC(C)C)NC(=O)[C@@H](CCCCN)NC(=O)[C@H](CCCCN)NC(=O)[C@H](CC(C)C)NC(=O)[C@@H](CC(C)C)NC(=O)[C@H](CCCCN)NC(=O)[C@@H](N)CC(C)C)C(N)=O", "note": "[Peptide 4, [D]-L^3,8,K^6,9,13-K6L9] (H-LK[dL]LK[dK]L[dL][dK]KLL[dK]LL-NH2; N-terminus assumed)", "values": [{"measurement": "MIC, C. albicans ATCC 10231", "setting": "[1]", "result": 50, "unit": "µg/mL"}, {"measurement": "MIC, C. neoformans ATCC 66031", "setting": "[2]", "result": 5.6, "unit": "µg/mL"}, {"measurement": "MIC, A. niger ATCC 9642", "setting": "[3]", "result": 180, "unit": "µg/mL"}]}, {"smiles": "CC(C)C[C@H](NC(=O)[C@H](CC(C)C)NC(=O)[C@@H](CCCCN)NC(=O)[C@@H](CCCCN)NC(=O)[C@H](CC(C)C)NC(=O)[C@@H](CC(C)C)NC(=O)[C@H](CCCCN)NC(=O)[C@H](CC(C)C)NC(=O)[C@@H](CC(C)C)NC(=O)[C@H](CC(C)C)NC(=O)[C@@H](N)CCCCN)C(=O)N[C@@H](CCCCN)C(=O)N[C@H](CC(C)C)C(=O)N[C@@H](CC(C)C)C(=O)N[C@@H](CCCCN)C(N)=O", "note": "[Peptide 10, [D]-L^3,6,13,K^8,9,13-K6L9] (H-KL[dL]LK[dL]L[dK][dK]LLK[dL]LK-NH2; N-terminus assumed)", "values": [{"measurement": "IC50", "setting": "[6]", "result": 2.6, "unit": "µM"}, {"measurement": "IC50", "setting": "[7]", "result": 15, "unit": "µM"}, {"measurement": "IC50", "setting": "A549 lung carcinoma", "result": 2.4, "unit": "µM"}, {"measurement": "IC50", "setting": "[8]", "result": 8.9, "unit": "µM"}, {"measurement": "IC50", "setting": "[9]", "result": 3.6, "unit": "µM"}, {"measurement": "CC50 at 24 h", "setting": "[4]", "result": 140, "unit": "µg/mL"}]}, {"smiles": "CC(C)C[C@H](NC(=O)[C@H](CCCCN)NC(=O)[C@@H](CC(C)C)NC(=O)[C@H](CC(C)C)NC(=O)[C@@H](N)CCCCN)C(=O)N[C@@H](CC(C)C)C(=O)N[C@H](CCCCN)C(=O)N[C@H](CCCCN)C(=O)N[C@@H](CC(C)C)C(=O)N[C@H](CC(C)C)C(=O)N[C@@H](CCCCN)C(=O)N[C@@H](CC(C)C)C(=O)N[C@H](CC(C)C)C(=O)N[C@@H](CC(C)C)C(=O)N[C@@H](CCCCN)C(N)=O", "note": "[Peptide 7, [D]-L^3,10,13,K^7,8-K6L9] (H-KL[dL]KLL[dK][dK]L[dL]KL[dL]LK-NH2; N-terminus assumed)", "values": [{"measurement": "MIC, C. albicans ATCC 10231", "setting": "[1]", "result": 50, "unit": "µg/mL"}, {"measurement": "MIC, C. neoformans ATCC 66031", "setting": "[2]", "result": 2.9, "unit": "µg/mL"}, {"measurement": "MIC, A. niger ATCC 9642", "setting": "[3]", "result": 50, "unit": "µg/mL"}]}]}
